The source of these data is ChEMBL document CHEMBL1201862, “PubChem BioAssay data set” (2004).

Among the test systems are DLD-1; DMS-273; KM-20L2; LXFL 529; M19-MEL; XF498; RXF 631; SNB-78; HOP-18.
Holding throughout (test): inhibition of tumour cell growth, NCI panel, 48 h

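Five compound concentrations were applied to cells in 96-well plates for 48 hours; endpoints were derived by simple linear interpolation of the resulting dose-response curve. GI50 marks 50% less growth.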 Activity calls are given as the source filed them. Rule as the data show it: active = GI50 up to about 1.1 µM and inactive = higher.

In the case of `C=C(C)[C@@H]1CC[C@]2(C)CC[C@]3(C)[C@H](CC[C@@H]4[C@@]5(C)CC[C@H](O)C(C)(C)[C@@H]5CC[C@]43C)[C@@H]12` [LUPEOL], the GI50 in the assay on DLD-1, in the assay with DMS-273, in the assay with KM-20L2, in the assay on LXFL 529, with M19-MEL and in the assay on XF498 was > 100 µM (inactive) in each case.

Consider `COc1nc2c(c(O)c(C)c(=O)n2OC2OC(COC(C)=O)C(OC(C)=O)C(OC(C)=O)C2OC(C)=O)c(=O)n1C` (stereo not drawn), for which the GI50 in the assay on DLD-1, in the assay on DMS-273, with KM-20L2, in the assay with LXFL 529, in the assay on M19-MEL and in the assay on RXF 631 was > 100 µM (inactive) throughout. Further, the GI50 in the assay with SNB-78 and in the assay on XF498 was > 100 µM (inactive) in each case.

In the case of `CCOC1=C2N=C(C(CC)c3ccccc3F)N=C2C(=O)c2ccccc21` (stereo not drawn), the GI50 with DMS-273, in the assay on KM-20L2, in the assay with LXFL 529, in the assay on M19-MEL and with RXF 631 was > 100 µM (inactive) each time.

`N#CCCn1[nH]c(=O)c(Cl)c(Cl)c1=O`: the GI50 in the assay on DLD-1 was 10.3 µM (inactive); in the assay with HOP-18, 16.9 µM (inactive); with KM-20L2, 15.8 µM (inactive); with LXFL 529, 16.9 µM (inactive); with M19-MEL, 12 µM (inactive); in the assay on RXF 631 it was 19.6 µM (inactive). The GI50 with SNB-78 is 19.6 µM (inactive); in the assay on XF498, 16.1 µM (inactive).

Turning to `Cc1ccccc1N(CCC#N)C1=NN(C(=O)CC(=O)Nc2ccccc2)C(c2ccccc2)C1` (stereo not drawn), the GI50 with DLD-1, in the assay on DMS-273, with HOP-18, in the assay with KM-20L2, in the assay with LXFL 529 and in the assay with M19-MEL was > 100 µM (inactive) throughout. Moreover, the values for the GI50 in the assay on RXF 631 and in the assay with SNB-78 were > 100 µM (inactive) and 67.9 µM (inactive), respectively.

For the molecule `NCC(NC(=O)OCc1ccccc1)C(=O)O` (stereo not drawn), the GI50 with DLD-1, with DMS-273, in the assay with HOP-18, with KM-20L2, in the assay with LXFL 529 and in the assay with M19-MEL was > 50 µM (inactive) throughout. For the same molecule, in the assay on SNB-78, the GI50 is > 50 µM (inactive).

Take `N=C(N)NCCCCCCC(=O)NC(O)C(=O)NCCCCNCCCN` (stereo not drawn): the GI50 in the assay on DLD-1 was 723 µM (inactive); in the assay on DMS-273 it was > 750 µM (inactive); in the assay on HOP-18, 710 µM (inactive); in the assay with KM-20L2, 600 µM (inactive); in the assay on M19-MEL, 719 µM (inactive); in the assay with SNB-78, > 750 µM (inactive). Further, the GI50 with XF498 is 100 µM (inactive).

Take `Cc1ccc(S(=O)(=O)C(CC(NC=O)S(=O)(=O)c2ccc(C)cc2)NC=O)cc1` (stereo not drawn): the GI50 in the assay with DLD-1, in the assay with DMS-273, in the assay on KM-20L2, in the assay with LXFL 529, in the assay with M19-MEL and in the assay with RXF 631 was > 100 µM (inactive) in each case. The GI50 in the assay on SNB-78 and in the assay with XF498 was > 100 µM (inactive) in each case.

Regarding `CC12CC(Br)(Br)C(=O)C3C1CCCC32`, the GI50 was 4.63 µM (inactive) with DLD-1; 6.58 µM (inactive) in the assay with DMS-273; 9.89 µM (inactive) in the assay on HOP-18; 17.4 µM (inactive) with KM-20L2; 2.38 µM (inactive) in the assay on LXFL 529; 8.34 µM (inactive) with M19-MEL. Further, the values for the GI50 in the assay with SNB-78 and in the assay with XF498 were 20 µM (inactive) and 8.73 µM (inactive), respectively.

`CCN1C[C@]2(C)CC[C@H](OC)C34C1C([C@H](OC(C)=O)[C@@H]32)[C@@]1(OC)C[C@H](OC)[C@H]2C[C@@H]4[C@@H]1[C@H]2O`: the GI50 in the assay on DLD-1, with DMS-273, in the assay on HOP-18, in the assay with KM-20L2, with LXFL 529 and in the assay on M19-MEL was > 100 µM (inactive) each time. Further, the GI50 with SNB-78 and with XF498 was > 100 µM (inactive) throughout.

Take `Cc1cc2c(C)nn(Cc3ccccc3Cl)c2c(C#N)c1C`: the GI50 in the assay on DLD-1, in the assay with DMS-273, with HOP-18, with KM-20L2, in the assay with LXFL 529 and in the assay with M19-MEL was > 100 µM (inactive) throughout. The GI50 in the assay on RXF 631 and with XF498 was > 100 µM (inactive) in each case.

Consider `CSc1nnc(C(C#N)C#N)nn1`, for which the GI50 in the assay on DLD-1, with DMS-273, in the assay on KM-20L2, with LXFL 529, in the assay on M19-MEL and with RXF 631 was > 100 µM (inactive) throughout. The GI50 in the assay with SNB-78 and with XF498 was > 100 µM (inactive) each time.

As to `CCc1ccccc1NC(=O)C1=C(C)NC(C)=C(C(=O)Nc2c(CC)cccc2CC)C1c1ccc2c(c1)OCO2` (stereo not drawn), the GI50 in the assay with DLD-1 is 21.9 µM (inactive); in the assay with KM-20L2, 17.6 µM (inactive); in the assay with LXFL 529, 17 µM (inactive); with M19-MEL, 22.1 µM (inactive); in the assay with SNB-78, 26.9 µM (inactive); with XF498, 28.4 µM (inactive).

As to `COc1cc2c(c(OC)c1OC)-c1ccc(SC)c(=O)cc1[C@@H](NCc1ccc([N+](=O)[O-])cc1)CC2`, the GI50 in the assay on DLD-1 is 0.00402 µM (active); in the assay on DMS-273 it was 0.00288 µM (active); in the assay on KM-20L2, 0.00158 µM (active); in the assay on LXFL 529 it was 0.00635 µM (active); with M19-MEL, 0.00379 µM (active); in the assay with SNB-78, 0.00904 µM (active). The GI50 with XF498 was 0.00899 µM (active).

`C/C=C/C#CC#C/C=C/C=C/C(O)CCO` (stereo not drawn): the GI50 with DLD-1, with DMS-273, with HOP-18, with KM-20L2, with LXFL 529 and in the assay on M19-MEL was > 23.1 µM (inactive) in each case. The GI50 with SNB-78 and in the assay on XF498 was > 23.1 µM (inactive) in each case.

`C=CCNC(=S)NNC(=O)c1c(C)nc2sccn12`: the GI50 with DLD-1, in the assay with DMS-273, in the assay with HOP-18, with KM-20L2, in the assay on LXFL 529 and in the assay with M19-MEL was > 100 µM (inactive) in each case. Besides, the GI50 in the assay on RXF 631 and in the assay on XF498 was > 100 µM (inactive) in each case.

Turning to `CC(=O)OC1CC2(C)OC(Cc3ccccc32)O1` (stereo not drawn), the GI50 in the assay with DLD-1, in the assay with DMS-273, with HOP-18, in the assay with KM-20L2, with M19-MEL and in the assay with SNB-78 was > 100 µM (inactive) throughout. The GI50 in the assay on XF498 is > 100 µM (inactive).

Consider `Cc1cc(=O)n(-c2ccccc2C)c(C)n1`, for which the GI50 in the assay on DLD-1, in the assay with DMS-273, in the assay with HOP-18, in the assay on KM-20L2, with LXFL 529 and in the assay on M19-MEL was > 100 µM (inactive) each time. Moreover, the GI50 in the assay with RXF 631 and with SNB-78 was > 100 µM (inactive) throughout.

In the case of `c1ccc2cc(C3NCCc4nc[nH]c43)ccc2c1` (stereo not drawn), the GI50 with DLD-1 was 62.2 µM (inactive); in the assay with DMS-273, 69.2 µM (inactive); in the assay on HOP-18, 47 µM (inactive); in the assay on KM-20L2, 42.7 µM (inactive); in the assay on LXFL 529, 54.2 µM (inactive); with M19-MEL, 29.9 µM (inactive). Also, the GI50 in the assay with SNB-78 is > 100 µM (inactive).

Turning to `CCCCN(CCCC)C(=O)C(=O)C(C)C(=O)CC` (stereo not drawn), the GI50 in the assay on DLD-1, in the assay with DMS-273, with KM-20L2, in the assay with LXFL 529, in the assay on SNB-78 and with XF498 was > 100 µM (inactive) in each case.

Regarding `NNC(=O)N/N=C1\C(=O)N(c2ccc(Cl)c(Cl)c2)C(=O)C(=O)C1c1nc2ccccc2s1` (stereo not drawn), the GI50 in the assay with DLD-1, in the assay with DMS-273, with HOP-18, with KM-20L2, in the assay with LXFL 529 and in the assay with SNB-78 was > 100 µM (inactive) throughout. In the assay on XF498, the GI50 is > 100 µM (inactive).

As for `O=C(c1ccccc1)c1c(CNCc2ccccc2)n(C(=O)c2ccccc2)c2ccccc12`, the GI50 is 35.4 µM (inactive) in the assay with DLD-1; 47.1 µM (inactive) in the assay with DMS-273; 40 µM (inactive) with KM-20L2; 30.4 µM (inactive) in the assay on LXFL 529; 92.3 µM (inactive) with M19-MEL; > 100 µM (inactive) in the assay with XF498.

For the molecule `COc1ccc(N2C(=O)C3CC(c4ccc(C)cc4)c4c([nH]c5ccccc45)C3C2=O)cc1` (stereo not drawn), the GI50 is 38.6 µM (inactive) with DLD-1; 24.1 µM (inactive) in the assay with DMS-273; 2.88 µM (inactive) with HOP-18; 10.9 µM (inactive) in the assay on KM-20L2; 28.7 µM (inactive) in the assay on LXFL 529; > 75.9 µM (inactive) with M19-MEL. The GI50 in the assay on SNB-78 is > 51.4 µM (inactive); in the assay on XF498, 27.2 µM (inactive).

On to `COc1cc(/C=N/N=C(\N)NO)ccc1O`, for which the values for the GI50 with DLD-1, with LXFL 529 and in the assay on SNB-78 were > 100 µM (inactive), 28.6 µM (inactive) and > 100 µM (inactive), respectively.

Take `Cc1ccc(-c2cc(=O)c3cc(C)c(C)c(C(=O)O)c3o2)cc1`: the GI50 in the assay with DLD-1, with DMS-273, with KM-20L2, in the assay on LXFL 529, in the assay on M19-MEL and in the assay on RXF 631 was > 100 µM (inactive) throughout. Further, the GI50 with SNB-78 and with XF498 was > 100 µM (inactive) throughout.
